According to US20240335569A1, “FIBROBLAST ACTIVATION PROTEIN INHIBITORS AND USE THEREOF” (3 B PHARMACEUTICALS GMBH, priority 2021, published 2024):

Legend:
[1] = target: FAP-expressing human WI-38 fibroblasts (Homo sapiens (Human), UniProt Q12884); test: FACS binding assay (competitive, Cy5-labeled 3BP-2935)
Experimental: In order to determine binding of compounds according to the present invention to FAP-expressing cells, a competitive FACS binding assay was established. […] Cells were diluted in FACS buffer to a final concentration of 100.000 cells per ml and 200 μl of the cell suspension are transferred to a u-shaped non-binding 96-well plate (Greiner). […] Cell were washed twice with FACS buffer (see above) and resuspended in 200 μl FACS buffer. Cells were analyzed in an Attune NxT flow cytometer (Thermo Fisher Scientific). Median fluorescence intensities (Cy5 channel) were calculated by Attune NxT software and plotted against test compound concentrations. Four parameter logistic (4PL) curve fitting and pIC50 calculations were performed using ActivityBase software.

[2] = target: Human recombinant FAP (Homo sapiens (Human), UniProt Q12884); test: FAP protease activity assay (human), FRET-based; type: biochemical
Sequence of Human recombinant FAP (Q12884 26-760): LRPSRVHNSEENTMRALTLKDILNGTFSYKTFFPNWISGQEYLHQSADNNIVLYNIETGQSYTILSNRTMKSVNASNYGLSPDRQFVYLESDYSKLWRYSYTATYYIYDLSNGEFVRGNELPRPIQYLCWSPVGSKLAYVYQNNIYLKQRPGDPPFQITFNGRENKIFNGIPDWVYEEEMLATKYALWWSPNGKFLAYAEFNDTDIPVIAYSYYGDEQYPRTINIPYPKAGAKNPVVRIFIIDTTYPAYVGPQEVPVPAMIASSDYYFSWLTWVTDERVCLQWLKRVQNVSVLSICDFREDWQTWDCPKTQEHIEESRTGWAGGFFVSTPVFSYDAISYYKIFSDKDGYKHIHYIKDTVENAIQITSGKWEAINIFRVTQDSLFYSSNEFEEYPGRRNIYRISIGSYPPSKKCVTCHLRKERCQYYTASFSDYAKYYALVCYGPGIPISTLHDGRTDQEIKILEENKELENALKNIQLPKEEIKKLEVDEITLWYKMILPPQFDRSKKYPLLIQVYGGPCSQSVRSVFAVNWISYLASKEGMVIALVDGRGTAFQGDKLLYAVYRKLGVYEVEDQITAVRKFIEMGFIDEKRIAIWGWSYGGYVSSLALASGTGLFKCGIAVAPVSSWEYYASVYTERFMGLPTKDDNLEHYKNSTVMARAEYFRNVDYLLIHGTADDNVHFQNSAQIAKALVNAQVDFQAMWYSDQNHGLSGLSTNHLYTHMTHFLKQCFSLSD
Experimental: (§1) In order to determine the inhibitory activity a FRET-based FAP protease activity assay was established.
Four parameter logistic (4PL) curve fitting and pIC50 calculations were performed using ActivityBase software (IDBS).

[3] = target: Recombinant mouse FAP (Mus musculus (Mouse), UniProt P97321); test: FAP protease activity assay (mouse), FRET-based; type: biochemical
Sequence of Recombinant mouse FAP (P97321 whole entry): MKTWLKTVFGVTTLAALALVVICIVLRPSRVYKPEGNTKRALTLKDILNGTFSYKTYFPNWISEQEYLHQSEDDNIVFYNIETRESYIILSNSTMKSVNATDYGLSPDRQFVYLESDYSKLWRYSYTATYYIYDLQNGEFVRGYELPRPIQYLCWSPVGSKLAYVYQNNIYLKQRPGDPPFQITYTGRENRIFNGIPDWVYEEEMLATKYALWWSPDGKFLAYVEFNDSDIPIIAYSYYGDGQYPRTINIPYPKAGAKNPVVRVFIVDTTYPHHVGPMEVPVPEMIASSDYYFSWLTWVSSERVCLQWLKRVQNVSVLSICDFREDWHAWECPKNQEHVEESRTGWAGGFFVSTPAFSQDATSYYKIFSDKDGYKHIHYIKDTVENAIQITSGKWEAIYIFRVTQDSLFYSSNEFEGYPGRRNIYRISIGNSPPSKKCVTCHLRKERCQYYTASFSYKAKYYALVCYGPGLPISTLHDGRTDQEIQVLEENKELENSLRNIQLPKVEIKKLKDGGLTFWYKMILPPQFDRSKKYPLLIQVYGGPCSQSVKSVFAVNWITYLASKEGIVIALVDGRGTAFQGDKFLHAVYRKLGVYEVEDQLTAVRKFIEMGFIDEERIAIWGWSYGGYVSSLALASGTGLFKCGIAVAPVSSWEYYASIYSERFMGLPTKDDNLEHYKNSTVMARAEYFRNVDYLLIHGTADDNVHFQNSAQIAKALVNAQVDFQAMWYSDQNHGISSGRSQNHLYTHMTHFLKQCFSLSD
Experimental: as §1
Four parameter logistic (4PL) curve fitting and pIC50 calculations were performed using ActivityBase software.

[4] = target: Recombinant human DPP4 (Homo sapiens (Human), UniProt P27487); test: DPP4 protease activity assay; type: biochemical
Sequence of Recombinant human DPP4 (P27487 whole entry): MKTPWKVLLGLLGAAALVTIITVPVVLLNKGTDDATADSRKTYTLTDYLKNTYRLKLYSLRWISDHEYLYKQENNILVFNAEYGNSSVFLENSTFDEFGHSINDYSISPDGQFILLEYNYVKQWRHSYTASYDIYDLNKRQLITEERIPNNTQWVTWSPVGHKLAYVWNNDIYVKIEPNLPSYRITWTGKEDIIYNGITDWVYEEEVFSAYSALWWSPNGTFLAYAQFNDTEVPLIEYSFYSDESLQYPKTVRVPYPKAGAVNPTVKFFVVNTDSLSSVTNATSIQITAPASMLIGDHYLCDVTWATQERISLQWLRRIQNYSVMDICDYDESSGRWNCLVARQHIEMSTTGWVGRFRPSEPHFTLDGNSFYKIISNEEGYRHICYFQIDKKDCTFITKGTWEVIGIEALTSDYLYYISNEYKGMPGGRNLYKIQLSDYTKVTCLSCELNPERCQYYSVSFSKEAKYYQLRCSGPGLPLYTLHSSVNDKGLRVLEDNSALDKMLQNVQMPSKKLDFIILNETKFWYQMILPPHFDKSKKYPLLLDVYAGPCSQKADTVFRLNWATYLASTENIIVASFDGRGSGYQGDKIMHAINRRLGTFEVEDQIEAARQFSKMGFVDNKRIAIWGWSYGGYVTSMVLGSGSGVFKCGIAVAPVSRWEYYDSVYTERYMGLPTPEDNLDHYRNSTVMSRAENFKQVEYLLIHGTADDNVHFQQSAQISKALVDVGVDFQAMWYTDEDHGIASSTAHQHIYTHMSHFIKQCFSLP
Experimental: The PREP activity assay was performed using the FACS buffer (PBS including 1% FBS, Sigma-Aldrich, Cat #D8537). […] The DPP4 activity assay was performed in DPP assay buffer (25 mM Tris, pH 8.0). […] Four parameter logistic (4PL) curve fitting and pIC50 calculations were performed using ActivityBase software.

[5] = human FAP protease activity, FRET
[6] = recombinant mouse FAP protease activity

Sequence of FAP-expressing human WI-38 fibroblasts (Q12884 whole entry): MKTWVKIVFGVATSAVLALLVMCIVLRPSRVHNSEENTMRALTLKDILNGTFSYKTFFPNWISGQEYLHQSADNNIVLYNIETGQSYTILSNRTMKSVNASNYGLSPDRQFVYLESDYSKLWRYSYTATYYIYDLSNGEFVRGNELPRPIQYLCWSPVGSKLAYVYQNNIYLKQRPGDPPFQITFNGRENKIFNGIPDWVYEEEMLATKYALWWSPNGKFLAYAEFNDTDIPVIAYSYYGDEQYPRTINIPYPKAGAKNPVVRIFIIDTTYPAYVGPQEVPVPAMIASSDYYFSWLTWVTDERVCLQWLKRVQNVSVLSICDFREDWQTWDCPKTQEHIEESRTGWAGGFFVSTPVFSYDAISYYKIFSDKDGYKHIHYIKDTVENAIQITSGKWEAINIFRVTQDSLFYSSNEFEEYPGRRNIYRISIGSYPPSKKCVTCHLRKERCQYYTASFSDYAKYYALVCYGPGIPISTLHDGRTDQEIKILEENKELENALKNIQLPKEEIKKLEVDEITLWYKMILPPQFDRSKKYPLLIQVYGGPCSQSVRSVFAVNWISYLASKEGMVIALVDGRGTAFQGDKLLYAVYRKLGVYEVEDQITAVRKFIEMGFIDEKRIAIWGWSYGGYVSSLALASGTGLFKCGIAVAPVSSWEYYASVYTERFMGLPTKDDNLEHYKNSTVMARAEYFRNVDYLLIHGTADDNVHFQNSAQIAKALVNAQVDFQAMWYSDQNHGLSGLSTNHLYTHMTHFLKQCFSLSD

## N#C[C@@H]1CC(F)(F)CN1C(=O)CNC(=O)c1ccnc2ccc(OCCCN3CCN(C(=O)CN4CCN5CCN6CCN(CC4)CC(=O)[O][Eu]([O]C(=O)C6)[O]C(=O)C5)CC3)cc12 [Compound 3BP-3663]
[1]; FAP-expressing WI-38 fibroblasts
  pIC50 (FACS): 8.6
[2]; recombinant human FAP, FRET protease activity
  pIC50 (Activity): 9.3
[3]; recombinant mouse FAP, FRET protease activity
  pIC50 (mouseFAP): 9.1

## CS(=O)(=O)c1ccc(-c2ccc3nccc(C(=O)NCC(=O)N4C[C@H](F)C[C@H]4C#N)c3c2)cc1 [Compound 3BP-3773]
[1]; WI-38 fibroblasts
  pIC50 (FACS): 7.3
[2]; [5]
  pIC50 (Activity): 8.5
[3]; [6]
  pIC50 (mouseFAP): 8
[4]
  pIC50 (DPP4): <6

## CS(=O)(=O)c1ccc(-c2ccc3nccc(C(=O)NCC(=O)N4C[C@@H](F)C[C@H]4C#N)c3c2)cc1 [Compound 3BP-3774]
[1]; WI-38 fibroblasts
  pIC50 (FACS): 8.8
[2]; [5]
  pIC50 (Activity): 9.2
[3]; [6]
  pIC50 (mouseFAP): 9.2
[4]
  pIC50 (DPP4): <6

## CS(=O)(=O)c1cc(F)c(-c2ccc3nccc(C(=O)NCC(=O)N4CCC[C@H]4C#N)c3c2)c(F)c1 [Compound 3BP-3828]
[1]; WI-38 fibroblasts
  pIC50 (FACS): 8.5
[2]; [5]
  pIC50 (Activity): 9.3
[3]; [6]
  pIC50 (mouseFAP): 9
[4]
  pIC50 (DPP4): <6

## Cc1cc(S(C)(=O)=O)ccc1-c1ccc2nccc(C(=O)NCC(=O)N3CC(F)(F)C[C@H]3C#N)c2c1 [Compound 3BP-3952]
[1]; WI-38 fibroblasts
  pIC50 (FACS): 8.7
[2]; [5]
  pIC50 (Activity): 9.3
[3]; [6]
  pIC50 (mouseFAP): 8.8
[4]
  pIC50 (DPP4): 6.1

## Cc1cc(S(C)(=O)=O)ccc1-c1ccc2nccc(C(=O)NCC(=O)N3CCC[C@H]3C#N)c2c1 [Compound 3BP-3953]
[1]; WI-38 fibroblasts
  pIC50 (FACS): 7.9
[2]; [5]
  pIC50 (Activity): 9.2
[3]; [6]
  pIC50 (mouseFAP): 8.9
[4]
  pIC50 (DPP4): <6

## Cc1cc2nccc(C(=O)NCC(=O)N3CC(F)(F)C[C@H]3C#N)c2cc1-c1ccc(S(C)(=O)=O)cc1 [Compound 3BP-4026]
[1]; WI-38 fibroblasts
  pIC50 (FACS): 8.9
[2]; [5]
  pIC50 (Activity): 9.3
[3]; [6]
  pIC50 (mouseFAP): 8.8
